# Measured values taken from publication PMC10215749, “Determination of the affinity constants for phage display albumin-binding peptides” (PeerJ, 2023).
# B1: HSA-3 peptide fused phage (peptide)
# peptide: AESQKLN
# notes: DNA GCGGAGAGTTAGAAGCTTAAT (TAG printed as Q); Measured as the peptide on whole phage, not as a free peptide; source: M13 phage clone from the Ph.D.-7 library, amplified in E. coli ER2738, purified (PEG/NaCl precipitation)
# Experiments:
# [1] = target: T1, HSA (Homo sapiens, UniProt P02768); assay: Relative dissociation constant of peptide-fused phage by double-reciprocal plot of phage titers
# Procedure: A single E. coli ER2738 colony was inoculated into 10 mL LB-Tet medium and incubated at 37 °C by shaking until mid-log phase (OD600∼0.5) for phage titering. Phage solutions were diluted 10-fold serially in TBS (50 mM Tris–HCl, pH 7.5, 150 mM NaCl) and aliquots of these solutions (50 µL) were added to a suspension of the prepared ER2738 cells (450 µL), 1 for each phage dilution. The phage-infected ER2738 cells (100 µL) were then poured from each dilution tube to an LB-Tet-IPTG-X-gal plate and the plates were incubated overnight at 37 °C. We determined the number of phage particles contained in the original stock phage culture by counting the number of plaques formed on the seeded agar plate and multiplying this by the dilution factor.
# The concentration of bound phage [ ϕT] and free phage [ ϕ] can be calculated from the mass conservation equation, where [ ϕ] T is the total concentration of input phage and the concentration of target bound phage [ ϕT] can be estimated by eluted phage concentration [ ϕ] e, which is very much less than [ ϕ] T in our experiment. (6) ϕ=ϕt−ϕe≈ϕt (7) ϕT≈ϕe.
# A double reciprocal plot of phage-target affinity measurement is generated by plotting 1/[ ϕ] e as a function of 1/[ ϕ] t. The slope is Kd/[T], the intercept on the vertical axis is 1/[T], and the intercept on the horizontal axis is −1/ Kd. […] (8) 1/ϕe=Kd/Tϕt+1/T.
# Then TBST buffer wash the unbound phages, followed by the elution of the bound phages to the well with glycine-HCl, pH2.2. The concentration of input and eluted phage was quantitated by titration. […] These phage-fused peptides were subjected to DNA sequencing and their corresponding heptapeptide sequences are also shown in Table 3.
# [2] = target: T1, HSA; assay: Phage clone binding to HSA, specificity ratio by phage titer; parameters: purchased Sigma; conditions: for Blank control phage titre: single clone eluted from blank control well; for Blank control phage titre / Elute phage titre (HSA-coated well): input 1.16 × 10^12 (HSA-3), 1.34 × 10^13 (HSA-4) pfu/ml; for Elute phage titre (HSA-coated well): single clone
# Procedure: After rapid washing three times with TBST (TBS + 0.1% [v/v] Tween-20), 100 µL of the diluted phage library (∼2 × 10^11 phage) was added to the well of the coated plate and rocked gently to let them absorb for 60 min. Following 10 washes with TBST, the bound phages were eluted with 0.2 M Gly-HCl, pH 2.2. The 100 µL that was eluted was neutralized with 15 µL Tris–HCl (1 M, pH 9.1) immediately. A small amount of eluted phage was titered as described above and the rest of elutes were added to 20 ml ER2738 culture (OD 600∼0.5) to be amplified 4.5 h at 37 °C for the next round.
# To evaluate the efficiency of the phage display panning procedure, we created two selection criteria: the recovery yield and the specificity ratio. The recovery yield is the ratio of the titer of the eluted phage to the input phage. The specificity ratio is the ratio of the titer of the eluted phage from the target coated well to the blank control well. Recovery Y ield%=Elutephagetiterfromtarget/Inputphagetiter×100 Specificity Ratio=Elutephagetiterfromtarget/Elutephagetiterfromblank.
# The amplified culture of phage clones was transferred to a 50 mL centrifuge tube and centrifuged for 10 min at 10,000 rpm at 4 °C with a high-speed refrigerated centrifuge (Himac CR21G). The supernatant was decanted to a fresh tube and precipitated by 1/5 volume of PEG/-NaCl (20% [w/v] Polyethylene Glycol–8000, 2.5 M NaCl) at 4 °C overnight and centrifuged for 20 min at 10,000 rpm. The supernatant was discarded and the sediment containing phage was suspended with TBS. To precipitate the phage again, a 1/5 volume of PEG/NaCl was added to the culture and it was stored at 4 °C for at least 60 min. The PEG suspension was centrifuged for 10 min at 10,000 rpm, the phage precipitate was suspended in 500 µL of TBS.
# The sequences of HSA-binding peptides were determined by DNA sequencing of the selected phage using −96 gIII sequencing primer 5′-[…]-3′ in the Ph.D-7 phage library.
# The specificity ratio was used to determine if positive phage clones with high HSA-binding affinity were isolated. […] We tested the selected clones with significant specificity ratios as potential HSA-binders, after screening many phage clones that consisted of microplate-surface-binding phages, the specific and non-specific target-binding phages, from the target-binding plate as shown in Table 3. The two selected clones, HSA-3 and HSA-4, show specificity ratios of 7.4 and 9.8, respectively, confirming that our method in the panning process is effective.
# [3] = target: T2, Human serum albumin (human, UniProt P02768 25-609); assay: phage binding to coated microplate, read by phage titer (double reciprocal plot); constant HSA coated in microtiter wells, varying input phage until equilibrium, TBST wash, elution with glycine-HCl pH 2.2, input and eluted phage titered; relative dissociation constant = slope/intercept of 1/eluted against 1/input; conditions: both partners purified
# T2 construct: human serum albumin (HSA), bought from Sigma, coated on microplate wells; also called HSA; HSA target; source: bought: Sigma
# [4] = target: T2, Human serum albumin; assay: phage binding to coated microplate, read by phage titer (specificity ratio); HSA coated in microplate wells, no blocking protein; purified phage clone added, washed with TBST, eluted with Gly-HCl pH 2.2 and titered; ratio of the eluted titer from the HSA well to that from a blank well; conditions: both partners purified
molecule,measurement,setting,value
ITPLPLR [HSA-4],Elute phage titer Φe,"[1]; HSA-4, sample 1, input 5.90×10^13 pfu/L",5.0×10^6 pfu/L
same,Elute phage titer Φe,"[1]; HSA-4, sample 2, input 3.88×10^13 pfu/L",4.32×10^6 pfu/L
same,Elute phage concentration [Φ]e,"[1]; HSA-4, sample 2, input concentration printed 1.55×10^7 mol/L",1.4e-14 mol/L
same,Elute phage titer Φe,"[1]; HSA-4, sample 3, input 2.93×10^13 pfu/L",2.87×10^6 pfu/L
same,Elute phage concentration [Φ]e,"[1]; HSA-4, sample 3, input concentration printed 2.05×10^7 mol/L",2.1e-14 mol/L
same,Elute phage titer Φe,"[1]; HSA-4, sample 4, input 2.48×10^13 pfu/L",2.8×10^6 pfu/L
same,Elute phage concentration [Φ]e,"[1]; HSA-4, sample 4, input concentration printed 2.44×10^7 mol/L",2.2e-14 mol/L
same,Elute phage titer Φe,"[1]; HSA-4, sample 5, input 2.10×10^13 pfu/L",2.16×10^6 pfu/L
same,Elute phage concentration [Φ]e,"[1]; HSA-4, sample 5, input concentration printed 2.86×10^7 mol/L",2.8e-14 mol/L
same,Kd,"[1]; read-out: Relative dissociation constant, phage-fused peptide vs immobilized HSA, double-reciprocal plot 1/[Φ]e vs 1/[Φ]t, linear regression, elution glycine-HCl pH 2.2",388 nM
same,Blank control phage titre,[2],5.22 × 10^5 pfu/ml
same,Elute phage titre (HSA-coated well),[2],5.12 × 10^6 pfu/ml
same,Specificity ratio,[2]; titer of eluted phage from target coated well / from blank control well,9.8
AESQKLN [HSA-3],Elute phage titer Φe,"[1]; HSA-3, sample 1, input 1.13×10^14 pfu/L",7.94×10^6 pfu/L
same,Elute phage titer Φe,"[1]; HSA-3, sample 2, input 5.8×10^13 pfu/L",7.5×10^6 pfu/L
same,Elute phage concentration [Φ]e,"[1]; HSA-3, sample 2, input concentration printed 1.03×10^7 mol/L",7.98e-13 mol/L
same,Elute phage titer Φe,"[1]; HSA-3, sample 3, input 3.36×10^13 pfu/L",5.68×10^6 pfu/L
same,Elute phage concentration [Φ]e,"[1]; HSA-3, sample 3, input concentration printed 1.79×10^7 mol/L",1.06e-14 mol/L
same,Elute phage concentration [Φ]e,"[1]; HSA-3, sample 4",2.39e-14 mol/L
same,Elute phage titer Φe,"[1]; HSA-3, sample 4, input 2.16×10^13 pfu/L",2.52×10^6 pfu/L
same,Elute phage titer Φe,"[1]; HSA-3, sample 5, input 1.52×10^13 pfu/L",2×10^6 pfu/L
same,Elute phage concentration [Φ]e,"[1]; HSA-3, sample 5, input concentration printed 3.99×10^7 mol/L",3.03e-14 mol/L
same,Blank control phage titre,[2],1.24 × 10^5 pfu/ml
same,Elute phage titre (HSA-coated well),[2],9.16 × 10^5 pfu/ml
B1,Kd,[3],529 nM
same,specificity ratio,[4],7.4
